Data taken from patent US20240018140A1, “MODIFIED IMIDAZOPYRIDINES AS GLUCOSYLCERAMIDE SYNTHASE INHIBITORS” (Merck Sharp & Dohme LLC, priority 2020, published 2024).

Target: glucosylceramide synthase (GCS) (Homo sapiens (Human), UniProt Q16739)
Assay: UDP-Glo glucosylceramide synthase biochemical assay
Conditions: endogenous GCS in Golgi preparations from human A375 malignant melanoma skin cells; C6 ceramide and UDP-glucose substrates; 20 h incubation; UDP detected by luminescence
Description: UDP-Glo™ Glucosylceramide Synthase Biochemical Assay
A UDP-Glo™ glucosylceramide synthase biochemical assay was utilized to evaluate the effect of test compounds on the activity of endogenous levels of GCS enzyme contained within Golgi preparations isolated from human A375 malignant melanoma skin cells. The UDP-Glo™ glucosylceramide synthase assay uses UDP-Glucose as a nucleotide-glycosyl donor and ceramide as substrate acceptor molecules. In the reaction, glucosylceramide synthase (GCS) transfers glucose from UDP-Glucose to ceramide. Glucosylceramide and UDP are released as products.
Using Promega's UDP-Glo™ Glycosyltransferase assay kit (Promega Corporation, Madison, WI, USA (Promega)), GCS activity was indirectly measured by detecting the amount of UDP produced. An aliquot of GCS enzyme (1.5 μg crude golgi preparation, total protein) and titrated test compound were aliquoted to each well and incubated for 30 minutes at room temperature. […] An equivalent volume of substrate mixture was then added to each well. Following a 20 h incubation at room temperature to allow for GCS turnover of substrate, an equal volume of UDP detection reagent (Promega) was added to each well and incubated for an additional 75 minutes at room temperature to simultaneously convert the accumulated UDP product into ATP and generate light in a luciferase reaction. The generated light was detected using a luminometer. […] luminescence values (RLUs) were normalized to mean “min” and “max” effects, as determined on each plate. “Min” was defined as the mean of the values of the wells treated with vehicle (DMSO) and which represent 0% inhibition; “max” was defined as the mean of the values of the wells treated with a reference inhibitor and which represent the 100% effect. Values for % Emax and EC50 were determined by best-fitting the normalized data to a curve in Activity Base along a four-parameter logistic nonlinear regression (4PL) model (based on the Levenberg-Marquardt algorithm and defined by the equation below): […]
where: n is 4PMin (bottom of the curve); m is 4PMax (top of the curve); i is IP (inflection point of curve); and p is slope. See Levenberg, K., “A Method for the Solution of Certain Problems in Least Squares”, Quart. Appl. Math. 2, (1944), pp 164-168 and Marquardt, D., “An Algorithm for Least Squares Estimation on Nonlinear Parameters”, SIAM J. Appl. Math. 11, (1963) pp 431-441.

glucosylceramide synthase (GCS), sequence (Q16739 whole entry): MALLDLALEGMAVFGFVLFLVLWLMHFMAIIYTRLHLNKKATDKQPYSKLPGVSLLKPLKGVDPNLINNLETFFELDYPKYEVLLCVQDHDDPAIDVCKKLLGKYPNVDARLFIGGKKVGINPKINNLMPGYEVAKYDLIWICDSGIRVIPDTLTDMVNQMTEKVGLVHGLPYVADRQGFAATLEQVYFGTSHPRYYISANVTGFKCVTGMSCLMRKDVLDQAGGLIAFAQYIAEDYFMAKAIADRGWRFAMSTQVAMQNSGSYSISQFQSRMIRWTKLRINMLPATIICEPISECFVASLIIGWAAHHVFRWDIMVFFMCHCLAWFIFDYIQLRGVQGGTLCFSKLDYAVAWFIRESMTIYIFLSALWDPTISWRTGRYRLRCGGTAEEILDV

SMILES	EC50
O=C(NC(c1cccnc1)C(F)(F)F)c1cn2cccc(-c3ccccc3OCC(F)(F)F)c2n1 (racemic) [Compound 38, (R and S)-N-(2,2,2-trifluoro-1-(pyridin-3-yl)ethyl)-8-(2-(2,2,2-trifluoroethoxy)phenyl)imidazo[1,2-a]pyridine-2-carboxamide]	5.5 nM
O=C(c1cn2cccc(-c3ccccc3OCC(F)(F)F)c2n1)N1CCOC2(CCOC2)C1 (racemic) [Compound 50, (R and S)-(2,6-dioxa-9-azaspiro[4.5]decan-9-yl)(8-(2-(2,2,2-trifluoroethoxy)phenyl)imidazo[1,2-a]pyridin-2-yl)methanone]	21 nM
O=C(N[C@H]1CC[C@H](O)C1)c1cn2cccc(-c3ccccc3OCC(F)(F)F)c2n1 (relative stereo) [Compound 19, N-(trans-3-hydroxycyclopentyl)-8-(2-(2,2,2-trifluoroethoxy)phenyl)imidazo[1,2-a]pyridine-2-carboxamide]	23 nM
O=C(NC1CCCOC1)c1cn2cccc(-c3ccccc3OCC(F)(F)F)c2n1 (single isomer, unassigned) [Compound 2, (R or S)-N-(tetrahydro-2H-pyran-3-yl)-8-(2-(2,2,2-trifluoroethoxy)phenyl)imidazo[1,2-a]pyridine-2-carboxamide]	6.1 nM
CC(CO)(NC(=O)c1cn2cccc(-c3ccccc3OCC(F)(F)F)c2n1)C(F)(F)F (single isomer, unassigned) [Compound 10, (R or S)-N-(1,1,1-trifluoro-3-hydroxy-2-methylpropan-2-yl)-8-(2-(2,2,2-trifluoroethoxy)phenyl)imidazo[1,2-a]pyridine-2-carboxamide]	7.2 nM
CC(O)c1cn2cc(C(F)(F)F)cc(-c3ccccc3OCC(F)(F)F)c2n1 (single isomer, unassigned) [Compound 63, (R or S) 1-(8-(2-(2,2,2-trifluoroethoxy)phenyl)-6-(trifluoromethyl)imidazo[1,2-a]pyridin-2-yl)ethan-1-ol]	5.7 nM
CC(C)(CO)NC(=O)c1cn2cccc(-c3ccccc3OCC(F)(F)F)c2n1 [Compound 1, N-(1-hydroxy-2-methylpropan-2-yl)-8-(2-(2,2,2-trifluoroethoxy)phenyl)imidazo[1,2-a]pyridine-2-carboxamide]	9.8 nM
C[C@@H](NC(=O)c1cn2cccc(-c3ccccc3OCC(F)(F)F)c2n1)C(F)(F)F [Compound 4, (R)-8-(2-(2,2,2-trifluoroethoxy)phenyl)-N-(1,1,1-trifluoropropan-2-yl)imidazo[1,2-a]pyridine-2-carboxamide]	26 nM
CC(C)(C#N)CNC(=O)c1cn2cc(Cl)cc(-c3ccccc3OCC(F)(F)F)c2n1 [Compound 8, 6-chloro-N-(2-cyano-2-methylpropyl)-8-(2-(2,2,2-trifluoroethoxy)phenyl)imidazo[1,2-a]pyridine-2-carboxamide]	4.5 nM
COCC(C)(C)NC(=O)c1cn2cccc(-c3ccccc3OCC(F)(F)F)c2n1 [Compound 11, N-(1-methoxy-2-methylpropan-2-yl)-8-(2-(2,2,2-trifluoroethoxy)phenyl)imidazo[1,2-a]pyridine-2-carboxamide]	38 nM
O=C(c1cn2cccc(-c3ccccc3OCC(F)(F)F)c2n1)N1Cc2cccnc2C1 [Compound 12, (5,7-dihydro-6H-pyrrolo[3,4-b]pyridin-6-yl)(8-(2-(2,2,2-trifluoroethoxy)phenyl)imidazo[1,2-a]pyridin-2-yl)methanone]	36 nM
CC(C)(C)NC(=O)c1cn2cc(F)cc(-c3ccccc3OCC(F)(F)F)c2n1 [Compound 13, N-(tert-butyl)-6-fluoro-8-(2-(2,2,2-trifluoroethoxy)phenyl)imidazo[1,2-a]pyridine-2-carboxamide]	5.8 nM

Compounds with a lower EC50, results first:

EC50	SMILES
3.3 nM	CC1(NC(=O)c2cn3cc(Cl)cc(-c4ccccc4OCC(F)(F)F)c3n2)CCCOC1 (racemic) [Compound 35, (R and S)-6-chloro-N-(3-methyltetrahydro-2H-pyran-3-yl)-8-(2-(2,2,2-trifluoroethoxy)phenyl)imidazo[1,2-a]pyridine-2-carboxamide]
3.1 nM	CC(C)(NC(=O)c1cn2cccc(-c3ccccc3OCC(F)(F)F)c2n1)C(F)(F)F [Compound 3, N-(1,1,1-trifluoro-2-methylpropan-2-yl)-8-(2-(2,2,2-trifluoroethoxy)phenyl)imidazo[1,2-a]pyridine-2-carboxamide]
2.3 nM	CC(CO)(NC(=O)c1cn2cccc(-c3ccccc3OCC(F)(F)F)c2n1)C(F)(F)F (single isomer, unassigned) [Compound 9, (R or S)-N-(1,1,1-trifluoro-3-hydroxy-2-methylpropan-2-yl)-8-(2-(2,2,2-trifluoroethoxy)phenyl)imidazo[1,2-a]pyridine-2-carboxamide]
2.3 nM	O=C(NC12CCC(CO)(CC1)CC2)c1cn2cccc(-c3ccccc3OCC(F)(F)F)c2n1 [Compound 18, N-(4-(hydroxymethyl)bicyclo[2.2.2]octan-1-yl)-8-(2-(2,2,2-trifluoroethoxy)phenyl)imidazo[1,2-a]pyridine-2-carboxamide]
1.2 nM	O=C(NC1CNCCC1(F)F)c1cn2cccc(-c3ccccc3OCC(F)(F)F)c2n1 (racemic) [Compound 17, (R and S)-N-(4,4-difluoropiperidin-3-yl)-8-(2-(2,2,2-trifluoroethoxy)phenyl)imidazo[1,2-a]pyridine-2-carboxamide]
0.97 nM	CC1(NC(=O)c2cn3cc(Cl)cc(-c4ccccc4OCC(F)(F)F)c3n2)CCOC1 (racemic) [Compound 14, (R and S)-6-chloro-N-(3-methyltetrahydrofuran-3-yl)-8-(2-(2,2,2-trifluoroethoxy)phenyl)imidazo[1,2-a]pyridine-2-carboxamide]
0.91 nM	O=C(N[C@H]1CCOC1)c1cn2cc(Cl)cc(-c3ccccc3OCC(F)(F)F)c2n1 [Compound 5, (S)-6-chloro-N-(tetrahydrofuran-3-yl)-8-(2-(2,2,2-trifluoroethoxy)phenyl)imidazo[1,2-a]pyridine-2-carboxamide]
0.83 nM	O=C(N[C@@H]1CNCC[C@H]1F)c1cn2cccc(-c3ccccc3OCC(F)(F)F)c2n1 (relative stereo) [Compound 16, N-(trans-4-fluoropiperidin-3-yl)-8-(2-(2,2,2-trifluoroethoxy)phenyl)imidazo[1,2-a]pyridine-2-carboxamide]
0.72 nM	O=C(N[C@H]1CC[C@H](O)C[C@H]1F)c1cn2cc(Cl)cc(-c3ccccc3OCC(F)(F)F)c2n1 (mixture of isomers) [Compound 22, 6-chloro-N-((1S,2R,4S and 1R, 2S,4R)-2-fluoro-4-hydroxycyclohexyl)-8-(2-(2,2,2-trifluoroethoxy)phenyl)imidazo[1,2-a]pyridine-2-carboxamide]
0.23 nM	O=C(N[C@@H]1CCC[C@H](CO)C1)c1cn2cccc(-c3ccccc3OCC(F)(F)F)c2n1 (relative stereo) [Compound 31, N-(cis-3-(hydroxymethyl)cyclohexyl)-8-(2-(2,2,2-trifluoroethoxy)phenyl)imidazo[1,2-a]pyridine-2-carboxamide]
0.029 nM	O=C(Nc1cccnc1)c1cn2cc(C(F)(F)F)cc(-c3ccccc3OCC(F)(F)F)c2n1 [Compound 15, N-(pyridin-3-yl)-8-(2-(2,2,2-trifluoroethoxy)phenyl)-6-(trifluoromethyl)imidazo[1,2-a]pyridine-2-carboxamide]
